How the values were obtained:
Format in all cases: biochemical
succinylated gelatin = assay: Protease assay using succinylated gelatin substrate with TNBSA detection; conditions: 100 μg succinylated gelatin, 37° C., 1 hour
Method: (§1) Assay Conditions. Elastase assay using succinylated elastin: A modified version of the method described in the Pierce Quanticleave™ protease assay kit II (Pierce Chemical Co.) was used for the elastase assay. The assay contained 100 μg of succinylated substrate (gelatin, elastin, or casein) and 50 μl of enzyme sample to be assayed, and the reaction was brought up to a final volume of 150 μl with BupH buffer or 50 mM sodium borate, pH 8.0 (50 mM sodium borate, pH 8.0, is a suitable substitute for BupH buffer). All reactions were prepared in 96-well Falcon 3097 flat-bottom microtiter plates (Beckton Dickinson, N.J.) The reactions were then incubated at 37° C. for 60 min. Fifty microliters of a 0.03% solution of TNBSA was then added to each reaction and left for 20 min at room temperature. The optical density of each reaction was then determined using a Bio-Whittaker microplate reader 2001 (Bio-Whittaker, Walkersville, Md.) at 450 nm. Blank reactions were also prepared which contained buffer and protease, buffer and substrate and buffer only. All sample dilutions were prepared in BupH buffer or 50 mM sodium borate buffer, pH 8.0, as were stock solutions of 1 mg/ml elastase and trypsin.
(§2) Comparison of Elastase and Trypsin Substrate Affinities. […] and 1 μg/ml of elastase and trypsin were assayed using succinylated elastin, gelatin, and casein substrate. Enzyme dilutions were prepared from a 1 mg/ml stock of trypsin and elastase in BupH buffer or 50 mM sodium borate, pH 8.0. Assays contained 50 μl enzyme and 100 μg succinylated substrate and were made up to a volume of 150 μl with BupH buffer or 50 mM sodium borate buffer, pH 8.0. Digests were incubated at 37° C. for 1 hour. All digests were prepared in duplicate and optical densities were measured at 450 nm. Blank reaction contained buffer/enzyme. Blank reading was subtracted from the final reaction optical density to give corrected absorbance values. Standard deviations are given in parentheses. The activity of elastase varies with substrate in the following order: elastin>casein>gelatin. The activity of trypsin varies with substrate in the following order: gelatin>casein>elastin. Substrate affinity was evaluated by the level of absorbance at 450 nm each protease generated with each substrate.

[1] = Elastase assay using Suc(Ala)3-nA (SANA); conditions: room temperature, 20 minutes
Method: Elastase assay using Suc(Ala)3-nA (SANA). The following method was used for testing PPE (CalBio-chem) activity. A 25 mM stock solution of SANA (Sigma) in dimethyl sulfoxide (Sigma), 1 mg/ml stock solution of elastase in distilled water, and 0.2 M Tris buffer pH 8.0 with 0.1% Triton X-100(Sigma) was prepared. The assay contained 12 μl of SANA and 50 μl of the enzyme sample and was made up to 200 μl with 0.2 M Tris buffer. All reactions were prepared in 96-well Falcon 3097 flat-bottom microtiter plates (Beckton Dickinson) and carried out at room temperature. The optical density of each digest was recorded for 20 min, at 30 second intervals, at 405 nm using a Bio-Whittaker microplate reader 2001 (Bio-Whittaker).
(§3) Comparison of Succinyl Elastin with SANA. The sensitivity of the succinylated elastin assay was compared to an elastase assay that uses SANA, a synthetic elastase substrate. 50 μl of 1000, 100, 10 and 1 ng/ml elastase was used to digest 100 μg of succinylated elastin and 12 μl of 12 mM SANA. The succinylated elastin digest was carried out at 37° C. for 1 hour. The SANA elastase assay was carried out at room temperature for 20 minutes. Optical densities were measured at 450 nm for succinylated elastin assay and 405 nm for SANA elastase assay. Blank reaction contained buffer/enzyme. Blank reading was subtracted from the final reaction optical density to give corrected absorbance values. Standard deviations are given in parentheses.

succinylated casein = assay: Protease assay using succinylated casein substrate with TNBSA detection; conditions: 100 μg succinylated casein, 37° C., 1 hour
Method: as §1, §2

succinylated elastin = assay: Protease assay using succinylated elastin substrate with TNBSA detection; conditions: 37° C., 1 hour; for corrected absorbance at 450 nm, substrate Elastin: 100 μg succinylated elastin
Method: as §1, §2, §3

| Molecule | corrected absorbance at 450 nm, substrate Gelatin (succinylated gelatin; protease concentration 1) | corrected absorbance at 450 nm, substrate Gelatin (succinylated gelatin; protease concentration 10) | corrected optical density at 405 nm, SANA ([1]; elastase 1 ng/ml) | corrected optical density at 405 nm, SANA ([1]; elastase 10 ng/ml) | corrected optical density at 405 nm, SANA ([1]; elastase 100 ng/ml) | corrected optical density at 405 nm, SANA ([1]; elastase 1000 ng/ml) | corrected absorbance at 450 nm, substrate Casein (succinylated casein; protease concentration 1) | corrected absorbance at 450 nm, substrate Casein (succinylated casein; protease concentration 10) | corrected optical density at 450 nm, Succinylated Elastin (succinylated elastin; elastase 1 ng/ml) | corrected optical density at 450 nm, Succinylated Elastin (succinylated elastin; elastase 10 ng/ml) | corrected optical density at 450 nm, Succinylated Elastin (succinylated elastin; elastase 100 ng/ml) | corrected optical density at 450 nm, Succinylated Elastin (succinylated elastin; elastase 1000 ng/ml) | corrected absorbance at 450 nm, substrate Elastin (succinylated elastin; protease concentration 1) | corrected absorbance at 450 nm, substrate Elastin (succinylated elastin; protease concentration 10) |
| --- | --- | --- | --- | --- | --- | --- | --- | --- | --- | --- | --- | --- | --- | --- |
| Elastase: Porcine pancreatic elastase (PPE; 297 units/mg) (EC 3.4.21.36) purchased from CalBiochem | 0.037 | 0.120 | 0 | 0 | 0.011 (±0.004) | 0.129 (±0.026) | 0.071 | 0.28 | 0.0086 (±0.003) | 0.01 (±0.001) | 0.015 (±0.004) | 0.054 (±0.006) | 0.085 | 0.377 |
| Trypsin: Protease from the Pierce Quanticleave protease assay kit II (13564 units/mg) (protein, UniProt P00760 24-246, looked up) Serine protease 1: IVGGYTCGANTVPYQVSLNSGYHFCGGSLINSQWVVSAAHCYKSGIQVRLGEDNINVVEGNEQFISASKSIVHPSYNSNTLNNDIMLIKLKSAASLNSRVASISLPTSCASAGTQCLISGWGNTKSSGTSYPDVLKCLKAPILSDSSCKSAYPGQITSNMFCAGYLEGGKDSCQGDSGGPVVCSGKLQGIVSWGSGCAQKNKPGVYTKVCNYVSWIKQTIASN | 0.179 | 0.354 |  |  |  |  | 0.106 | 0.158 |  |  |  |  | 0.024 | 0.049 |

Reference: patent US6350586B2, “Method for isolating inhibitors of protease activity” (Long Island Jewish Medical Center, priority 1998, dated 2002)
